Target: T1, human cloned 5-HT6 receptors (Homo sapiens, UniProt P50406)
T1 construct: expressed in transfected cells; host or cells: Hela cells
Assay: 5-HT6 binding affinity ([3H]-LSD displacement, membranes of Hela cells expressing human cloned 5-HT6 receptors)
Conditions: [3H]-LSD 3.0 nM, 120 min, room temperature, Hela cell membranes
Method: The affinity of test compounds for the serotonin 5-HT6 receptor is evaluated in the following manner. Cultured Hela cells expressing human cloned 5-HT6 receptors are harvested and centrifuged at low speed (1,000×g) for 10.0 min to remove the culture media. The harvested cells are suspended in half volume of fresh physiological phosphate buffered saline solution and recentrifuged at the same speed. This operation is repeated. The collected cells are then homogenized in ten volumes of 50 mM Tris.HCl (pH 7.4) and 0.5 mM EDTA. The homogenate is centrifuged at 40,000×g for 30.0 min and the precipitate is collected. The obtained pellet is resuspended in 10 volumes of Tris.HCl buffer and recentrifuged at the same speed. The final pellet is suspended in a small volume of Tris.HCl buffer and the tissue protein content is determined in aliquots of 10-25 μl volumes. Bovine Serum Albumin is used as the standard in the protein determination according to the method described in Lowry et al., J. Biol. Chem., 193:265 (1951). The volume of the suspended cell membranes is adjusted to give a tissue protein concentration of 1.0 mg/ml of suspension. The prepared membrane suspension (10 times concentrated) is aliquoted in 1.0 ml volumes and stored at −70° C. until used in subsequent binding experiments.
Binding experiments are performed in a 96 well microtiter plate format, in a total volume of 200 μl. […] The test compounds are added in 20.0 μl volume.
The reaction is allowed to proceed in the dark for 120 min at room temperature, at which time, the bound ligand-receptor complex is filtered off on a 96 well unifilter with a Packard Filtermate® 196 Harvester. The bound complex caught on the filter disk is allowed to air dry and the radioactivity is measured in a Packard TopCount® equipped with six photomultiplier detectors, after the addition of 40.0 μl Microscint®-20 scintillant to each shallow well. The unifilter plate is heat-sealed and counted in a PackardTopCount® with a tritium efficiency of 31.0%.
Binding in the presence of varying concentrations of test compound is expressed as a percentage of specific binding in the absence of test compound. The results are plotted as log % bound versus log concentration of test compound. […] A linear regression line of data points is plotted, from which the IC50 value is determined and the Ki value is determined based upon the following equation: Ki=IC50/(1+L/KD) where L is the concentration of the radioactive ligand used and KD is the dissociation constant of the ligand for the receptor, both expressed in nM.

T1 sequence (P50406 whole entry): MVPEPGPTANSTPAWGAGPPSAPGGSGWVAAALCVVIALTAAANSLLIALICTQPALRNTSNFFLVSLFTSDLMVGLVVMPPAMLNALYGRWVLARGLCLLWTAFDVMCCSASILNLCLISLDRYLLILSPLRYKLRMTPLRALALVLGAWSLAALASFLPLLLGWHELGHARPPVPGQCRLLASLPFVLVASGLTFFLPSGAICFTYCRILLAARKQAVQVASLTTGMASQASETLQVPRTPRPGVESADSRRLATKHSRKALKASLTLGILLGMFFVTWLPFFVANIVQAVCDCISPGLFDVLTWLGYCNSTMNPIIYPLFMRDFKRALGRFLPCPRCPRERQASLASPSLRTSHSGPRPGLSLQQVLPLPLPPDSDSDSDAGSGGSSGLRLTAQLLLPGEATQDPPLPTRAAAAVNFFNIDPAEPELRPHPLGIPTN

| Ki | Molecule |
| --- | --- |
| 77 nM | O=c1n(C2CCNCC2)c2ccccc2n1S(=O)(=O)c1c(Cl)nc2ccccn12 [Example 34, 1-[(2-chloroimidazo[1,2-a]pyridin-3-yl)sulfonyl]-3-piperidin-4-yl-1,3-dihydro-2H-benzimidazol-2-one] |
| 45 nM | O=c1n(C2CCNCC2)c2ccccc2n1S(=O)(=O)c1cccc2nsnc12 [Example 38, 1-[(2,1,3-benzothiadiazol-4-yl)sulfonyl]-3-piperidin-4-yl-1,3-dihydro-2H-benzimidazol-2-one] |
| 6 nM | O=c1n(C2=CCNCC2)c2ccccc2n1S(=O)(=O)c1ccc2ccccc2c1 [Example 39, 1-(2-naphthylsulfonyl)-3-(1,2,3,6-tetrahydropyridin-4-yl)-1,3-dihydro-2H-benzimidazol-2-one] |
| 5 nM | O=c1n(C2=CCNCC2)c2ccccc2n1S(=O)(=O)c1ccc(Cl)s1 [Example 40, 1-[(5-chlorothien-2-yl)sulfonyl]-3-(1,2,3,6-tetrahydropyridin-4-yl)-1,3-dihydro-2H-benzimidazol-2-one] |
| 4 nM | O=c1n(C2=CCNCC2)c2ccccc2n1S(=O)(=O)c1ccc(Br)s1 [Example 41, 1-[(5-bromothien-2-yl)sulfonyl]-3-(1,2,3,6-tetrahydropyridin-4-yl)-1,3-dihydro-2H-benzimidazol-2-one] |
| 15 nM | O=c1n(C2=CCNCC2)c2ccccc2n1S(=O)(=O)c1cc(Cl)c(Cl)s1 [Example 42, 1-[(4,5-dichlorothien-2-yl)sulfonyl]-3-(1,2,3,6-tetrahydropyridin-4-yl)-1,3-dihydro-2H-benzimidazol-2-one] |
| 9 nM | O=c1n(C2=CCNCC2)c2ccccc2n1S(=O)(=O)c1cc(Cl)sc1Cl [Example 43, 1-[(2,5-dichlorothien-3-yl)sulfonyl]-3-(1,2,3,6-tetrahydropyridin-4-yl)-1,3-dihydro-2H-benzimidazol-2-one] |
| 10 nM | O=c1n(C2=CCNCC2)c2ccccc2n1S(=O)(=O)c1sc(Cl)cc1Br [Example 45, 1-[(3-bromo-5-chlorothien-2-yl)sulfonyl]-3-(1,2,3,6-tetrahydropyridin-4-yl)-1,3-dihydro-2H-benzimidazol-2-one] |
| 9 nM | O=c1n(C2=CCNCC2)c2ccccc2n1S(=O)(=O)c1cc(Br)c(Cl)s1 [Example 46, 1-[(4-bromo-5-chlorothien-2-yl)sulfonyl]-3-(1,2,3,6-tetrahydropyridin-4-yl)-1,3-dihydro-2H-benzimidazol-2-one] |
| 49 nM | Cc1c(S(=O)(=O)n2c(=O)n(C3=CCNCC3)c3ccccc32)sc2ccc(Cl)cc12 [Example 48, 1-[(5-chloro-3-methyl-1-benzothien-2-yl)sulfonyl]-3-(1,2,3,6-tetrahydropyridin-4-yl)-1,3-dihydro-2H-benzimidazol-2-one] |
| 2 nM | O=c1n(C2=CCNCC2)c2ccccc2n1S(=O)(=O)c1c(Cl)nc2sccn12 [Example 49, 1-[(6-chloroimidazo[2,1-b][1,3]thiazol-5-yl)sulfonyl]-3-(1,2,3,6-tetrahydropyridin-4-yl)-1,3-dihydro-2H-benzimidazol-2-one] |
| 19 nM | O=c1n(C2=CCNCC2)c2ccccc2n1S(=O)(=O)c1c(Cl)nc2ccccn12 [Example 51, 1-[(2-chloroimidazo[1,2-a]pyridin-3-yl)sulfonyl]-3-(1,2,3,6-tetrahydropyridin-4-yl)-1,3-dihydro-2H-benzimidazol-2-one] |

Continued, molecule first:

| Molecule | Ki |
| --- | --- |
| 1-[(2,6-dichloroimidazo[2,1-b][1,3]thiazol-5-yl)sulfonyl]-3-(1,2,3,6-tetrahydropyridin-4-yl)-1,3-dihydro-2H-benzimidazol-2-one [Example 50] | 18 nM |
| CN(C)CCn1c(=O)n(S(=O)(=O)c2ccc(Cl)s2)c2ccccc21 [Example 4, 1-[(5-Chlorothien-2-yl)sulfonyl]-3-[2-(dimethylamino)ethyl]-1,3-dihydro-2H-benzimidazol-2-one] | 43 nM |
| CN(C)CCn1c(=O)n(S(=O)(=O)c2c(Cl)nc3sccn23)c2ccccc21 [Example 5, 1-[(6-chloroimidazo[2,1-b][1,3]thiazol-5-yl)sulfonyl]-3-[2-(dimethylamino)ethyl]-1,3-dihydro-2H-benzimidazol-2-one] | 20 nM |
| CN(C)CCn1c(=O)n(S(=O)(=O)c2ccc3ccccc3c2)c2ccccc21 [Example 6, 1-[2-(dimethylamino)ethyl]-3-(2-naphthylsulfonyl)-1,3-dihydro-2H-benzimidazol-2-one] | 17 nM |
| CN(C)CCn1c(=O)n(S(=O)(=O)c2ccc(Br)s2)c2ccccc21 [Example 10, 1-[(5-bromothien-2-yl)sulfonyl]-3-[2-(dimethylamino)ethyl]-1,3-dihydro-2H-benzimidazol-2-one] | 40 nM |
| NCCn1c(=O)n(S(=O)(=O)c2ccc(Cl)s2)c2ccccc21 [Example 17, 1-(2-Aminoethyl)-3-[(5-chlorothien-2-yl)sulfonyl]-1,3-dihydro-2H-benzimidazol-2-one] | 26 nM |
| NCCn1c(=O)n(S(=O)(=O)c2c(Cl)nc3sccn23)c2ccccc21 [Example 18, 1-(2-aminoethyl)-3-[(6-chloroimidazo[2,1-b][1,3]thiazol-5-yl)sulfonyl]-1,3-dihydro-2H-benzimidazol-2-one] | 6 nM |
| NCCn1c(=O)n(S(=O)(=O)c2ccc3ccccc3c2)c2ccccc21 [Example 19, 1-(2-aminoethyl)-3-(2-naphthylsulfonyl)-1,3-dihydro-2H-benzimidazol-2-one] | 23 nM |
| NCCn1c(=O)n(S(=O)(=O)c2ccc(Br)s2)c2ccccc21 [Example 20, 1-(2-aminoethyl)-3-[(5-bromothien-2-yl)sulfonyl]-1,3-dihydro-2H-benzimidazol-2-one] | 26 nM |
| O=c1n(C2CCNCC2)c2ccccc2n1S(=O)(=O)c1ccc2ccccc2c1 [Example 22, 3-(Naphth-2-ylsulfonyl)-1-piperidin-4-yl-1,3-dihydrobenzimidazol-2-one] | 20 nM |
| O=c1n(C2CCNCC2)c2ccccc2n1S(=O)(=O)c1ccc(Cl)s1 [Example 23, 1-[(5-chlorothien-2-yl)sulfonyl]-3-piperidin-4-yl-1,3-dihydro-2H-benzimidazol-2-one] | 20 nM |
| O=c1n(C2CCNCC2)c2ccccc2n1S(=O)(=O)c1ccc(Br)s1 [Example 24, 1-[(5-bromothien-2-yl)sulfonyl]-3-piperidin-4-yl-1,3-dihydro-2H-benzimidazol-2-one] | 5 nM |
| O=c1n(C2CCNCC2)c2ccccc2n1S(=O)(=O)c1cc(Cl)c(Cl)s1 [Example 25, 1-[(4,5-dichlorothien-2-yl)sulfonyl]-3-piperidin-4-yl-1,3-dihydro-2H-benzimidazol-2-one] | 32 nM |
| O=c1n(C2CCNCC2)c2ccccc2n1S(=O)(=O)c1cc(Cl)sc1Cl [Example 26, 1-[(2,5-dichlorothien-3-yl)sulfonyl]-3-piperidin-4-yl-1,3-dihydro-2H-benzimidazol-2-one] | 34 nM |
| O=c1n(C2CCNCC2)c2ccccc2n1S(=O)(=O)c1cc(Br)c(Br)s1 [Example 27, 1-[(4,5-dibromothien-2-yl)sulfonyl]-3-piperidin-4-yl-1,3-dihydro-2H-benzimidazol-2-one] | 27 nM |
| O=c1n(C2CCNCC2)c2ccccc2n1S(=O)(=O)c1cc(Br)c(Cl)s1 [Example 29, 1-[(4-bromo-5-chlorothien-2-yl)sulfonyl]-3-piperidin-4-yl-1,3-dihydro-2H-benzimidazol-2-one] | 20 nM |
| O=c1n(C2CCNCC2)c2ccccc2n1S(=O)(=O)c1c(Cl)sc(Cl)c1Br [Example 30, 1-[(4-bromo-2,5-dichlorothien-3-yl)sulfonyl]-3-piperidin-4-yl-1,3-dihydro-2H-benzimidazol-2-one] | 42 nM |
| Cc1c(S(=O)(=O)n2c(=O)n(C3CCNCC3)c3ccccc32)sc2ccc(Cl)cc12 [Example 31, 1-[(5-chloro-3-methyl-1-benzothien-2-yl)sulfonyl]-3-piperidin-4-yl-1,3-dihydro-2H-benzimidazol-2-one] | 80 nM |
| O=c1n(C2CCNCC2)c2ccccc2n1S(=O)(=O)c1c(Cl)nc2sccn12 [Example 32, 1-[(6-chloroimidazo[2,1-b][1,3]thiazol-5-yl)sulfonyl]-3-piperidin-4-yl-1,3-dihydro-2H-benzimidazol-2-one] | 46 nM |
| O=c1n(C2CCNCC2)c2ccccc2n1S(=O)(=O)c1c(Cl)nc2sc(Cl)cn12 [Example 33, 1-[(2,6-dichloroimidazo[2,1-b][1,3]thiazol-5-yl)sulfonyl]-3-piperidin-4-yl-1,3-dihydro-2H-benzimidazol-2-one] | 23 nM |

— patent US7544701B2, “Sulfonyldihydrobenzimidazolone compounds as 5-hydroxytryptamine-6 ligands” (Wyeth, priority 2003, dated 2009)
